Measurements reported in patent publication US10851064B2, “ACSS2 inhibitors and methods of use thereof” (METABOMED LTD., priority 2017, dated 2020).

What follows are molecules tested against ACSS2 (Homo sapiens, UniProt Q9NR19) (assay: biochemical).
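Further: Cell-free human ACSS2 enzyme reaction with acetate, CoA and ATP, 90 min at 37 C, coupled to pyrophosphatase, phosphate release detected by Biomol Green absorbance at 620 nm.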
Experimental: ACSS2 Cell-Free Activity Assay (Cell-Free IC50)
The assay is based on a coupling reaction with Pyrophosphatase: ACSS2 is converting ATP+CoA+Acetate=>AMP+pyrophosphate+Acetyl-CoA (Ac-CoA). Pyrophosphatase converts pyrophosphate, a product of the ACSS2 reaction, to phosphate which can be detected by measuring the absorbance at 620 nm after incubation with the Biomol green reagent (Enzo life Science, BML-AK111).
Cell-free IC50 Determination:
At the end of the reaction, Biomol Green was added for 30 minutes at RT and the activity was measured by reading the absorbance at 620 nm.

Chain of ACSS2 (Q9NR19 whole entry): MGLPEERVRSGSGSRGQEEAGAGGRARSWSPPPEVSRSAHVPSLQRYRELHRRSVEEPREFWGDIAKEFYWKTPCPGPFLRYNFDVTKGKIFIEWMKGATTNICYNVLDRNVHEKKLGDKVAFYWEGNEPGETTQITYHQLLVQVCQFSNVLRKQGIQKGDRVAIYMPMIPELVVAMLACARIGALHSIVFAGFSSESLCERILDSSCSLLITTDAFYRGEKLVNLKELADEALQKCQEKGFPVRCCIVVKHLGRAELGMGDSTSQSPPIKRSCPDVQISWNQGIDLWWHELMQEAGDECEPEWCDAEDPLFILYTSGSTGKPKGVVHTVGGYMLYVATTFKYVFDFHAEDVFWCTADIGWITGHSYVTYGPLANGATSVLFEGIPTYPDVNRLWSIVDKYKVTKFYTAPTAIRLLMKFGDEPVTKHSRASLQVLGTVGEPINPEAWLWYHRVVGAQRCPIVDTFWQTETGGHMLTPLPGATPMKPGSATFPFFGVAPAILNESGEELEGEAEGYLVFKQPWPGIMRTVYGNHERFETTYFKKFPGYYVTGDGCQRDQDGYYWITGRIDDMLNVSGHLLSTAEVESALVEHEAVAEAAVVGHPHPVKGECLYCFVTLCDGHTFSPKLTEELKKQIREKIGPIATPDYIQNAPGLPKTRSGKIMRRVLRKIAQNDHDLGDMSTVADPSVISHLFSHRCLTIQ

| Structure (SMILES) | IC50 |
| --- | --- |
| CCCCCc1cccc(NC(=O)C2C(=O)N(c3ccccc3)N=C2C)c1 (stereo not shown) [compound 118, 3-methyl-5-oxo-N-(3-pentylphenyl)-1-phenyl-4,5-dihydro-1H-pyrazole-4-carboxamide] | 1000 to 100000 nM |
| CC1=NN(c2ccncc2)C(=O)C1C(=O)Nc1ccccc1 (stereo not shown) [compound 193, 3-methyl-5-oxo-N-phenyl-1-(pyridin-4-yl)-4,5-dihydro-1H-pyrazole-4-carboxamide] | > 100000 nM |
| CC1=NN(c2ccccc2)C(=O)C1C(=O)Nc1cccc(C(C)C)c1 (stereo not shown) [compound 100, N-(3-isopropylphenyl)-3-methyl-5-oxo-1-phenyl-4,5-dihydro-1H-pyrazole-4-carboxamide] | 100 to 1000 nM |
| COc1ccc(NC(=O)C2C(=O)N(c3ccccc3)N=C2C)cc1 (stereo not shown) [compound 188, N-(4-methoxyphenyl)-3-methyl-5-oxo-1-phenyl-4,5-dihydro-1H-pyrazole-4-carboxamide] | 1000 to 100000 nM |
| CCc1cccc(NC(=O)C2C(=O)N(c3ccccc3)N=C2c2ccccn2)c1 (stereo not shown) [compound 156, N-(3-ethylphenyl)-5-oxo-1-phenyl-3-(pyridin-2-yl)-4,5-dihydro-1H-pyrazole-4-carboxamide] | 1000 to 100000 nM |
| CC1=NN(c2ccccc2)C(=O)C1C(=O)Nc1cccc(C(=O)O)c1 (stereo not shown) [compound 116, 3-(3-methyl-5-oxo-1-phenyl-4,5-dihydro-1H-pyrazole-4-carboxamido)benzoic acid] | 1000 to 100000 nM |
| CC1=NN(c2ccc(S(=O)(=O)N(C)C)cc2)C(=O)C1C(=O)Nc1cccc(-c2ncc[nH]2)c1 (stereo not shown) [compound 173, N-(3-(1H-imidazol-2-yl)phenyl)-1-(4-(N,N-dimethylsulfamoyl)phenyl)-3-methyl-5-oxo-4,5-dihydro-1H-pyrazole-4-carboxamide] | 100 to 1000 nM |
| CC1=NN(c2ccccc2)C(=O)C1C(=O)Nc1cccc(CO)c1 (stereo not shown) [compound 111, N-(3-(hydroxymethyl)phenyl)-3-methyl-5-oxo-1-phenyl-4,5-dihydro-1H-pyrazole-4-carboxamide] | 1000 to 100000 nM |
| CCc1cccc(NC(=O)c2c(C)nn(-c3ccc(NC)cc3)c2OC(=O)N(C)C)c1 [compound 224, 4-((3-ethylphenyl)carbamoyl)-3-methyl-1-(4-(methylamino)phenyl)-1H-pyrazol-5-yl dimethylcarbamate] | 1000 to 100000 nM |
| CC1=NN(c2cccc(C(=O)O)c2)C(=O)C1C(=O)Nc1cccc(-c2ncco2)c1 (stereo not shown) [compound 170] | 6 to 100 nM |
| CCc1cccc(NC(=O)C2C(=O)N(c3ccc(N)cc3)N=C2C)c1 (stereo not shown) [compound 154, 1-(4-aminophenyl)-N-(3-ethylphenyl)-3-methyl-5-oxo-4,5-dihydro-1H-pyrazole-4-carboxamide] | 100 to 1000 nM |
| CC1=NN(c2ccc(C(F)(F)F)cc2)C(=O)C1C(=O)Nc1ccccc1 (stereo not shown) [compound 201, 3-methyl-5-oxo-N-phenyl-1-(4-(trifluoromethyl)phenyl)-4,5-dihydro-1H-pyrazole-4-carboxamide] | 1000 to 100000 nM |
| CCOc1ccc(N2N=C(C)C(C(=O)Nc3cccc(CC)c3)C2=O)cc1 (stereo not shown) [compound 134, 1-(4-ethoxyphenyl)-N-(3-ethylphenyl)-3-methyl-5-oxo-4,5-dihydro-1H-pyrazole-4-carboxamide] | 1000 to 100000 nM |
| CC1=NN(c2ccc(C(F)(F)F)cc2)C(=O)C1C(=O)Nc1cccc(-c2cnccn2)c1 (stereo not shown) [compound 150, 3-methyl-5-oxo-N-(3-(pyrazin-2-yl)phenyl)-1-(4-(trifuoromethyl)phenyl)-4,5-dihydro-1H-pyrazole-4-carboxamide] | 6 to 100 nM |
| CNC(=O)C1C(=O)N(c2ccccc2)N=C1C (stereo not shown) [compound 199, N,3-dimethyl-5-oxo-1-phenyl-4,5-dihydro-1H-pyrazole-4-carboxamide] | > 100000 nM |
| CC1=NN(c2ccccc2)C(=O)C1C(=O)Nc1ccc(O)cc1 (stereo not shown) [compound 205, N-(4-hydroxyphenyl)-3-methyl-5-oxo-1-phenyl-4,5-dihydro-1H-pyrazole-4-carboxamide] | 1000 to 100000 nM |
| CCc1cccc(NC(=O)C2C(=O)N(c3ccc([N+](=O)[O-])cc3)N=C2C)c1 (stereo not shown) [compound 153, N-(3-ethylphenyl)-3-methyl-1-(4-nitrophenyl)-5-oxo-4,5-dihydro-1H-pyrazole-4-carboxamide] | 100 to 1000 nM |
| CCOC(=O)c1cc(NC(=O)C2C(=O)N(c3ccccc3)N=C2C)ccn1 (stereo not shown) [compound 135, ethyl 4-(3-methyl-5-oxo-1-phenyl-4,5-dihydro-1H-pyrazole-4-carboxamido)picolinate] | 100 to 1000 nM |
| CC1=NN(c2ccccc2)C(=O)C1C(=O)Nc1cccc(-c2ccncc2)c1 (stereo not shown) [compound 104, 3-methyl-5-oxo-1-phenyl-N-(3-(pyridin-4-yl)phenyl)-4,5-dihydro-1H-pyrazole-4-carboxamide] | 1000 to 100000 nM |

Next, values leading:

| IC50 | Structure (SMILES) |
| --- | --- |
| 0.01 to 6 nM | CCC(F)(F)c1cccc(NC(=O)C2C(=O)N(c3ccc(OC(F)F)c(-c4ccccn4)c3)N=C2C)c1 (stereo not shown) [compound 377] |
| 0.01 to 6 nM | CC1=NN(c2ccc(OC(F)F)c(-c3nnc(C)[nH]3)c2)C(=O)C1C(=O)Nc1cccc(C(C)(F)F)c1 (stereo not shown) [compound 371] |
| 0.01 to 6 nM | CC1=NN(c2cccc(C#CCNC(=O)COCCOCCOCCOCCOCC(=O)Nc3cccc4c3C(=O)N(C3CCC(=O)NC3=O)C4=O)c2)C(=O)C1C(=O)Nc1cccc(C(C)(F)F)c1 (stereo not shown) [compound 378] |
| 1000 to 100000 nM | CC1=NN(c2ccccc2)C(=O)C1C(=O)Nc1ccncc1 (stereo not shown) [compound 216, 3-methyl-5-oxo-1-phenyl-N-(pyridin-4-yl)-4,5-dihydro-1H-pyrazole-4-carboxamide] |
| 100 to 1000 nM | CC1=NN(c2ccccc2)C(=O)C1C(=O)Nc1cscc1C (stereo not shown) [compound 283] |
| 0.01 to 6 nM | CC1=NN(c2ccc(OC(F)F)c(-c3noc(C)n3)c2)C(=O)C1C(=O)Nc1cccc(C(C)(F)F)c1 (stereo not shown) [compound 407] |
| 0.01 to 6 nM | COc1ccc(N2N=C(C)C(C(=O)Nc3cccc(C(C)(F)F)c3)C2=O)cc1-c1ccccc1 (stereo not shown) [compound 452] |
| 0.01 to 6 nM | CCC(F)(F)c1cccc(NC(=O)C2C(=O)N(c3ccc(OC(F)F)cn3)N=C2C)c1 (stereo not shown) [compound 383] |
| 0.01 to 6 nM | CC1=NN(c2cccc(C#CCNC(=O)COCCOCCOCCOCC(=O)Nc3ccc4c(c3)C(=O)N(C3CCC(=O)NC3=O)C4=O)c2)C(=O)C1C(=O)Nc1cccc(C(C)(F)F)c1 (stereo not shown) [compound 379] |
| 0.01 to 6 nM | CC1=NN(c2ccc(OC(F)F)c(-c3nnc(C)o3)c2)C(=O)C1C(=O)Nc1cccc(C(C)(F)F)c1 (stereo not shown) [compound 429] |
| 6 to 100 nM | CC1=NN(c2ccc(S(=O)(=O)N(C)C)cc2)C(=O)C1C(=O)Nc1cccc(-c2cnccn2)c1 (stereo not shown) [compound 262] |
| 100 to 1000 nM | CC(=O)c1cc(NC(=O)C2C(=O)N(c3ccc(OC(F)F)cc3)N=C2C)c2[nH]ccc2c1 (stereo not shown) [compound 408] |
| 6 to 100 nM | CC(=O)NS(=O)(=O)c1cccc(N2N=C(C)C(C(=O)Nc3cccc(C(C)(F)F)c3)C2=O)c1 (stereo not shown) [compound 293] |
| 0.01 to 6 nM | CC1=NN(c2ccc(OC3CCCCC3)cc2)C(=O)C1C(=O)Nc1cccc(C(C)(F)F)c1 (stereo not shown) [compound 443] |
| 0.01 to 6 nM | CC1=NN(c2ccc3ccn(-c4ccccc4)c3c2)C(=O)C1C(=O)Nc1cccc(C(C)(F)F)c1 (stereo not shown) [compound 361] |
| 100 to 1000 nM | CCc1csc(NC(=O)C2C(=O)N(c3ccccc3)N=C2C)c1 (stereo not shown) [compound 285] |
| 100 to 1000 nM | CC1=NN(c2ccc(S(=O)(=O)N(C)C)cc2)C(=O)C1C(=O)Nc1cccc(-c2ncco2)c1 (stereo not shown) [compound 254] |
| 100 to 1000 nM | CC1=NN(c2ccc(OC(F)F)cc2)C(=O)C1C(=O)Nc1cccc2[nH]ccc12 (stereo not shown) [compound 350] |
